In US20100063127A1, “Antioxidant Properties of Tryptophan from Human Milk” (priority 2008, published 2010):

Test system: TNFα
Assay: Effect on TNFα expression, cell based immunoassay in RAW 264.7 cells
Design: species or system mouse
Experimental: This was carried out using a cell based immunoassay using mouse monocyte/macrophage cells (RAW 264.7; ATCC American Tissue Culture Collection). The experiment was done in triplicates. The data were analyzed by t-test. […] Based on this tryptophan is an ant-inflammatory amino acid.

**Q.** Which TNFα (Tryptophan 50 μg/ml, control Medium + LPS 1 μg/ml 6156, triplicates) does the source give for `N[C@@H](Cc1c[nH]c2ccccc12)C(=O)O` [Tryptophan] here?
**A.** Its TNFα is 4869 pg/mL.

**Q.** And the “TNFα, treated value versus control value (t-test)” value (p<0.05)?
**A.** Its value is “significant difference”.
